This experiment deals with Ramos cells with BTK WT. The experiment can be described thus: Phosphor-BTK(Y223) assay, suspended cells. The format is cell-based. Particulars: Homo sapiens, phosphorylated BTK Y223, Ramos cells with BTK WT. In a few lines: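 Ramos BTK WT cells (2.5 k/well) were treated with compound dilutions for 2 h at 37 °C, then 5 mM Na3VO4 for 3 h. Lysates were read by HTRF p-BTK(Y223) cryptate/d2 antibodies overnight at RT (665/620 ratio). IC50 came from a four-parameter fit of % inhibition versus blank and positive-control wells.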

Some results are limits rather than exact numbers.

`COc1ccc(F)cc1C(=O)NCc1ccc(-c2nc(C(C)C(F)(F)F)c(-c3ccn(C)n3)c3[nH]nc(N)c23)cc1` (centres unmarked) [Example 6, N-(4-(3-amino-7-(1-methyl-1H-pyrazol-3-yl)-6-(1,1,1-trifluoropropan-2-yl)-1H-pyrazolo[4,3-c]pyridin-4-yl)benzyl)-5-fluoro-2-methoxybenzamide] displayed an IC50 (Ramos) of at most 5 nM.

`COc1ccc(F)cc1C(=O)NCc1ccc(-c2nc(C(C)C(F)(F)F)c(-c3ncccn3)c3[nH]nc(N)c23)cc1` (centres unmarked) [Example 7, N-(4-(3-amino-7-(pyrimidin-2-yl)-6-(1,1,1-trifluoropropan-2-yl)-1H-pyrazolo[4,3-c]pyridin-4-yl)benzyl)-5-fluoro-2-methoxybenzamide]: the IC50 (Ramos) lay in the range of 5 to 10 nM.

For the setting “Ramos”, `COc1ccc(F)cc1C(=O)NCc1ccc(-c2ncc(-c3cnn(C)c3)c3[nH]nc(N)c23)cc1` [Example 22, N-(4-(3-amino-7-(1-methyl-1H-pyrazol-4-yl)-1H-pyrazolo[4,3-c]pyridin-4-yl)benzyl)-5-fluoro-2-oxybenzamide] gave an IC50 of 10 to 50 nM.

Regarding `COc1ccc(F)cc1C(=O)NCc1ccc(-c2ncc(-c3ccn(CC(=O)N(C)C)n3)c3[nH]nc(N)c23)cc1` [Example 25, N-(4-(3-amino-7-(1-(2-(dimethylamino)-2-oxoethyl)-1H-pyrazol-3-yl)-1H-pyrazolo[4,3-c]pyridin-4-yl)benzyl)-5-fluoro-2-methoxybenzamide], the concentration for half-maximal inhibition (IC50) (Ramos) was 5 to 10 nM.

With `CNC(=O)Cn1ccc(-c2cnc(-c3ccc(CNC(=O)c4cc(F)ccc4OC)cc3)c3c(N)n[nH]c23)n1` [Example 26, N-(4-(3-amino-7-(1-(2-(methylamino)-2-oxoethyl)-1H-pyrazol-3-yl)-1H-pyrazolo[4,3-c]pyridin-4-yl)benzyl)-5-fluoro-2-methoxybenzamide], the IC50 (Ramos) is at most 5 nM.

`COc1ccc(F)cc1C(=O)NCc1ccc(-c2ncc(-c3ccn(CC(F)(F)F)n3)c3[nH]nc(N)c23)cc1` [Example 28, N-(4-(3-amino-7-(1-(2,2,2-trifluoroethyl)-1H-pyrazol-3-yl)-1H-pyrazolo[4,3-c]pyridin-4-yl)benzyl)-5-fluoro-2-methoxybenzamide] yielded an IC50 (Ramos) of 10 to 50 nM.

The compound `COc1ccc(F)cc1C(=O)NCc1ccc(-c2ncc(-c3cn(C)cn3)c3[nH]nc(N)c23)cc1` [Example 30, N-(4-(3-amino-7-(1-methyl-1H-imidazol-4-yl)-1H-pyrazolo[4,3-c]pyridin-4-yl)benzyl)-5-fluoro-2-methoxybenzamide] showed an IC50 (Ramos) of 10 to 50 nM.

Regarding `COc1ccc(F)cc1C(=O)NCc1ccc(-c2ncc(-c3cc[nH]n3)c3[nH]nc(N)c23)cc1` [Example 31, N-(4-(3-amino-7-(1H-pyrazol-3-yl)-1H-pyrazolo[4,3-c]pyridin-4-yl)benzyl)-5-fluoro-2-methoxybenzamide], the IC50 (Ramos) fell in the range of 10 to 50 nM.

On to `COc1ccc(F)cc1C(=O)NCc1ccc(-c2ncc(-c3ncc(F)cn3)c3[nH]nc(N)c23)cc1` [Example 36, N-(4-(3-amino-7-(5-fluoropyrimidin-2-yl)-1H-pyrazolo[4,3-c]pyridin-4-yl)benzyl)-5-fluoro-2-methoxybenzamide], for which, under “Ramos”, the IC50 fell in the range of 10 to 50 nM.

As for `COc1ccc(F)cc1C(=O)NCc1ccc(-c2ncc(-c3ccc(Cl)cn3)c3[nH]nc(N)c23)cc1` [Example 38, N-(4-(3-amino-7-(5-chloropyridin-2-yl)-1H-pyrazolo[4,3-c]pyridin-4-yl)benzyl)-5-fluoro-2-methoxybenzamide], the IC50 (Ramos) was at most 5 nM.

In turn, `COc1ccc(F)cc1C(=O)NCc1ccc(-c2ncc(-c3ncc(C)cn3)c3[nH]nc(N)c23)cc1` [Example 39, N-(4-(3-amino-7-(5-methylpyrimidin-2-yl)-1H-pyrazolo[4,3-c]pyridin-4-yl)benzyl)-5-fluoro-2-methoxybenzamide] showed an IC50 (Ramos) of at most 5 nM.

Regarding `COc1ccc(F)cc1C(=O)NCc1ccc(-c2ncc(-c3ccc(OC(F)(F)F)cn3)c3[nH]nc(N)c23)cc1` [Example 41, N-(4-(3-amino-7-(5-(trifluoromethoxy)pyridin-2-yl)-1H-pyrazolo[4,3-c]pyridin-4-yl)benzyl)-5-fluoro-2-methoxybenzamide], the IC50 (Ramos) was at most 5 nM.

Where the note is “Ramos”, `COc1ccc(F)cc1C(=O)NCc1ccc(-c2ncc(-c3ncc(C(F)(F)F)cn3)c3[nH]nc(N)c23)cc1` [Example 42, N-(4-(3-amino-7-(5-(trifluoromethyl)pyrimidin-2-yl)-1H-pyrazolo[4,3-c]pyridin-4-yl)benzyl)-5-fluoro-2-methoxybenzamide] gave an IC50 of 10 to 50 nM.

Turning to `CCOC(=O)c1cnc2cc(-c3cnc(-c4ccc(CNC(=O)c5cc(F)ccc5OC)cc4)c4c(N)n[nH]c34)nn2c1` [Example 45, ethyl 2-(3-amino-4-(4-((5-fluoro-2-methoxybenzoylamino)methyl)phenyl)-1H-pyrazolo[4,3-c]pyridin-7-yl)pyrazolo[1,5-a]pyrimidine-6-carboxylate], the IC50 (Ramos) was above 50 nM.

Where the note is “Ramos”, `COc1ccc(F)cc1C(=O)NCc1ccc(-c2ncc(-c3ccc4cn[nH]c4n3)c3[nH]nc(N)c23)cc1` [Example 47, N-(4-(3-amino-7-(1H-pyrazolo[3,4-b]pyridin-6-yl)-1H-pyrazolo[4,3-c]pyridin-4-yl)benzyl)-5-fluoro-2-methoxybenzamide] came in with a 50% inhibitory concentration (IC50) of 5 to 10 nM.

Consider `COc1ccc(F)cc1C(=O)NCc1ccc(-c2ncc(-c3ccc(C(F)F)cn3)c3[nH]nc(N)c23)cc1` [Example 48, N-(4-(3-amino-7-(5-(difluoromethyl)pyridin-2-yl)-1H-pyrazolo[4,3-c]pyridin-4-yl)benzyl)-5-fluoro-2-methoxybenzamide], for which, for the setting “Ramos”, the IC50 is at most 5 nM.

Under “Ramos”, `COc1ccc(F)cc1C(=O)NCc1ccc(-c2ncc(-c3cn4ccnc4cn3)c3[nH]nc(N)c23)cc1` [Example 50, N-(4-(3-amino-7-(imidazo[1,2-a]pyrazin-6-yl)-1H-pyrazolo[4,3-c]pyridin-4-yl)benzyl)-5-fluoro-2-methoxybenzamide] showed an IC50 of 5 to 10 nM.

In turn, `COc1ccc(F)cc1C(=O)NCc1ccc(-c2ncc(-c3ccc4nccn4n3)c3[nH]nc(N)c23)cc1` [Example 51, N-(4-(3-amino-7-(imidazo[1,2-b]pyridazin-6-yl)-1H-pyrazolo[4,3-c]pyridin-4-yl)benzyl)-5-fluoro-2-methoxybenzamide] showed an IC50 (Ramos) of 5 to 10 nM.

`COc1ccc(F)cc1C(=O)NCc1ccc(-c2ncc(-c3ccc(C(=O)N4C[C@@H](C)O[C@H](C)C4)cn3)c3[nH]nc(N)c23)cc1` [Example 54, N-(4-(3-amino-7-(5-((2R,6R)-2,6-dimethylmoroholine-4-carbonyl)pyridin-2-yl)-1H-pyrazolo[4,3-c]pyridin-4-yl)benzyl)-5-fluoro-2-methoxybenzamide] returned an IC50 (Ramos) of at most 5 nM.

Regarding `COc1ccc(F)cc1C(=O)NCc1ccc(-c2ncc(-c3ccc(P(C)(C)=O)cn3)c3[nH]nc(N)c23)cc1` [Example 56, N-(4-(3-amino-7-(5-(dimethylphosphoryl)pyridin-2-yl)-1H-pyrazolo[4,3-c]pyridin-4-yl)benzyl)-5-fluoro-2-methoxybenzamide], the IC50 (Ramos) was at most 5 nM.

In turn, `COc1ccc(F)cc1C(=O)NCc1ccc(-c2ncc(-c3nc4cnccn4n3)c3[nH]nc(N)c23)cc1` [Example 57, N-(4-(7-([1,2,4]triazolo[1,5-a]pyrazin-2-yl)-3-amino-1H-pyrazolo[4,3-c]pyridin-4-yl)benzyl)-5-fluoro-2-methoxybenzamide] displayed an IC50 (Ramos) of 10 to 50 nM.

`COc1ccc(F)cc1C(=O)NCc1ccc(-c2ncc(-c3nc4ccccn4n3)c3[nH]nc(N)c23)cc1` [Example 58, N-(4-(7-([1,2,4]triazolo[1,5-a]pyridin-2-yl)-3-amino-1H-pyrazolo[4,3-c]pyridin-4-yl)benzyl)-5-fluoro-2-methoxybenzamide] returned an IC50 (Ramos) of at most 5 nM.

`COc1ccc(F)cc1C(=O)NCc1ccc(-c2ncc(-c3cnn4cccnc34)c3[nH]nc(N)c23)cc1` [Example 70, N-(4-(3-amino-7-(pyrazolo[1,5-a]pyrimidin-3-yl)-1H-pyrazolo[4,3-c]pyridin-4-yl)benzyl)-5-fluoro-2-methoxybenzamide] came in with an IC50 (Ramos) of at most 5 nM.

For `COc1ccc(F)cc1C(=O)NCc1ccc(-c2ncc(-c3ccc(N4CCN(C)CC4)cn3)c3[nH]nc(N)c23)cc1` [Example 73, N-(4-(3-amino-7-(5-(4-methylpiperazin-1-yl)pyridin-2-yl)-1H-pyrazolo[4,3-c]pyridin-4-yl)benzyl)-5-fluoro-2-methoxybenzamide], the IC50 (Ramos) was at most 5 nM.

As for `COc1ccc(F)cc1C(=O)NCc1ccc(-c2ncc(-c3nccn4cccc34)c3[nH]nc(N)c23)cc1` [Example 77, N-(4-(3-amino-7-(pyrrolo[1,2-a]pyrazin-1-yl)-1H-pyrazolo[4,3-c]pyridin-4-yl)benzyl)-5-fluoro-2-methoxybenzamide], under “Ramos”, the IC50 is at most 5 nM.

Regarding `COc1ccc(F)cc1C(=O)NCc1ccc(-c2ncc(-c3cc4cnccn4n3)c3[nH]nc(N)c23)cc1` [Example 78, N-(4-(3-amino-7-(pyrazolo[1,5-a]pyrazin-2-yl)-1H-pyrazolo[4,3-c]pyridin-4-yl)benzyl)-5-fluoro-2-methoxybenzamide], the IC50 (Ramos) is at most 5 nM.

For `COc1ccc(F)cc1C(=O)NCc1ccc(-c2ncc(-c3ccc(NC(=O)C4CC4)cn3)c3[nH]nc(N)c23)cc1` [Example 79, N-(4-(3-amino-7-(5-(cyclopropaneformamido)pyridin-2-yl)-1H-pyrazolo[4,3-c]pyridin-4-yl)benzyl)-5-fluoro-2-methoxybenzamide], the IC50 lay in the range of 5 to 10 nM.

Compound `COc1ccc(F)cc1C(=O)NCc1ccc(-c2ncc(-c3cc(NC(=O)C4CC4)ccn3)c3[nH]nc(N)c23)cc1` [Example 80, N-(4-(3-amino-7-(4-(cyclopropaneformamido)pyridin-2-yl)-1H-pyrazolo[4,3-c]pyridin-4-yl)benzyl)-5-fluoro-2-methoxybenzamide] had an IC50 of at most 5 nM.

For the compound `COc1ccc(F)cc1C(=O)NCc1ccc(-c2ncc(-c3ccc(F)cn3)c3[nH]nc(N)c23)c(F)c1` [Example 82, N-(4-(3-amino-7-(5-fluoropyridin-2-yl)-1H-pyrazolo[4,3-c]pyridin-4-yl)-3-fluorobenzyl)-5-fluoro-2-methoxybenzamide], the IC50 (Ramos) lay within 10 to 50 nM.
